Literature values in patent US20060140985A1, “Lansoprazole formulations and related processes and methods” (priority 2003, published 2006).
Read-outs that look alike come from different tables or passages of the source.

Experiments:
[1] = not given; remark: listed apart in the source
[2] = not given; remark: listed apart in the source
gastric acid secretion = settings: in vivo

solubility (acetonitrile): slightly soluble
solubility (dichloromethane): slightly soluble
solubility (dimethylformamide): freely soluble
solubility (ethanol): sparingly soluble
solubility (ether): very slightly soluble
solubility (ethyl acetate): slightly soluble
solubility (hexane): practically insoluble
solubility (methanol): soluble
solubility (water): practically insoluble
metabolism ([2]; liver): extensively metabolized in the liver
plasma elimination half-life ([2]; plasma): less than two hours
SMILES: Cc1c(OCC(F)(F)F)ccnc1C[S+]([O-])c1nc2ccccc2[nH]1 (centres unmarked) [Lansoprazole, 2-[[[3-methyl-4 (2,2,2-trifluoroethoxy)-2-pyridyl]methyl]sulfinyl]benzimidazole]
degradation in aqueous solution ([1]; aqueous solution, pH dependence): degrades in aqueous solution, with the rate of degradation increasing with decreasing pH
stability when exposed to light ([1]; light): stable when exposed to light for up to two months
duration of acid inhibitory effect (gastric acid secretion): more than twenty-four hours
